Reference: ChEMBL document CHEMBL5725742, “Imidazopyridazine derivatives as PI3KB inhibitors” (2018)

Legend:
[1] = (§1) KINOMEscan Enzyme Binding Assays: Kinase enzyme binding affinities of compounds disclosed herein were determined using the KINOMEscan technology performed by DiscoveRx Corporation, San Diego, Calif., USA (www.kinomescan.com).
[2] = biological target: T1, Phosphatidylinositol 4,5-bisphosphate 3-kinase catalytic subunit delta isoform (Homo sapiens, UniProt O00329); assay: as §1
T1 sequence (O00329 whole entry): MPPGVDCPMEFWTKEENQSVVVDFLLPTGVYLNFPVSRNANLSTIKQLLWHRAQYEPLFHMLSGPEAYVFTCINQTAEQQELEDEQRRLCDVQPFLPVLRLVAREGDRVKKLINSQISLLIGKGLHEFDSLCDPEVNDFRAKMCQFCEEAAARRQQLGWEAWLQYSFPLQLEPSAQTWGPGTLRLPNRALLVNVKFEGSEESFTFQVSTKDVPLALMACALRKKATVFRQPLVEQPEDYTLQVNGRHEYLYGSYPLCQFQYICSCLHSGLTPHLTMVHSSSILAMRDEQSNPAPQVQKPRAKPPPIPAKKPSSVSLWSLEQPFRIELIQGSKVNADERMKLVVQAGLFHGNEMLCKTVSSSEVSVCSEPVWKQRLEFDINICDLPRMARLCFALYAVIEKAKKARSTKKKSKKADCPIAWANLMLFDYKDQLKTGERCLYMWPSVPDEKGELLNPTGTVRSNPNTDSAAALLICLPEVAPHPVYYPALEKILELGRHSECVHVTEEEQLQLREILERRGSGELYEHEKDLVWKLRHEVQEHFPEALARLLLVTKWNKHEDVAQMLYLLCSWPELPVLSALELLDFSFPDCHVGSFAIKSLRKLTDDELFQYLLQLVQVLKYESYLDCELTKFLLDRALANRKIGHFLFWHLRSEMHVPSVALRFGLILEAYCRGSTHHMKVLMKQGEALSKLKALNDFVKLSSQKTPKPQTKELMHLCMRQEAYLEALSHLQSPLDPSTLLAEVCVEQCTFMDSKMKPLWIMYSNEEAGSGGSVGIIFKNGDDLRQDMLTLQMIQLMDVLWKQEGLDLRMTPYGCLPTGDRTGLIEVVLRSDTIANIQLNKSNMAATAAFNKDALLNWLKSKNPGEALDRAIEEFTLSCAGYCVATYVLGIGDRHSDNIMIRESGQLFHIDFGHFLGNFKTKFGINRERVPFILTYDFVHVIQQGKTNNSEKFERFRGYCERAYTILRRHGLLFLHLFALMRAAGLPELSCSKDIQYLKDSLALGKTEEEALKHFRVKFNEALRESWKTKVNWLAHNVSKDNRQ

[3] = biological target: Phosphatidylinositol 4,5-bisphosphate 3-kinase catalytic subunit gamma isoform (Homo sapiens, UniProt P48736); assay: as §1
Chain of Phosphatidylinositol 4,5-bisphosphate 3-kinase catalytic subunit gamma isoform (P48736 whole entry, canonical isoform): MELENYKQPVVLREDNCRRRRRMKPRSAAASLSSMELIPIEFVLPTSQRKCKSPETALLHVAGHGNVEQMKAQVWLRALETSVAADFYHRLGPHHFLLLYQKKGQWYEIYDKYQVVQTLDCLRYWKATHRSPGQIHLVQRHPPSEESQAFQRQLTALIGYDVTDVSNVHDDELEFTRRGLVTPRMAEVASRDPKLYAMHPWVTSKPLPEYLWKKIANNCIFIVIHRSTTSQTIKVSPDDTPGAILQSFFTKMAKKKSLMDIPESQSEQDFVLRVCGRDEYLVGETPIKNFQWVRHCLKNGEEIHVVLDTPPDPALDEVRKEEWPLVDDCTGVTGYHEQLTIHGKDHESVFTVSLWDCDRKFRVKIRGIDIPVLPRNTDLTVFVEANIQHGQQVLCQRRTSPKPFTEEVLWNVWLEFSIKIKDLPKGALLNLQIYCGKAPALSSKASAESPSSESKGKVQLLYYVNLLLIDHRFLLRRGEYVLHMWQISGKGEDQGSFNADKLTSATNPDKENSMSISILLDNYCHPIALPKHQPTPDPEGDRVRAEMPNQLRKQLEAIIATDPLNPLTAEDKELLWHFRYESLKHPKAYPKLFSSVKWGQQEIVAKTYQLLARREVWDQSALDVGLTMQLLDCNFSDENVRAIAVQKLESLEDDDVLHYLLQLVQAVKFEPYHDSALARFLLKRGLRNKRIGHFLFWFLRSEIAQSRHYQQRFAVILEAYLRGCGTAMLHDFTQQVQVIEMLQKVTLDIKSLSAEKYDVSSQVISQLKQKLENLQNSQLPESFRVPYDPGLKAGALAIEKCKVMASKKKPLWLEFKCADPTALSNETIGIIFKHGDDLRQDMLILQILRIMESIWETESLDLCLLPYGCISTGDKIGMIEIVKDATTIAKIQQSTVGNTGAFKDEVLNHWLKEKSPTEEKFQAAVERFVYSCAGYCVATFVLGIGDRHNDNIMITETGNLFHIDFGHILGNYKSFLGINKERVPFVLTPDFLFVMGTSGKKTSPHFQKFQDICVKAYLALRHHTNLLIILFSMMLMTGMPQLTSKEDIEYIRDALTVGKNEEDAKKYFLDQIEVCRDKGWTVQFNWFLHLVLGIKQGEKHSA

| Kd [1] [nM] | Kd [2] [nM] | Kd [3] [nM] | Structure (SMILES) |
| --- | --- | --- | --- |
| > 30200 | – | – | CC(CO)NCc1c(F)cccc1Cc1c(CO)nc2c(N)cc(N3CCOCC3)nn12 (stereo not given) |
| – | 80 | 1760 | Cc1c(Cc2c(CO)nc3c(-c4cnc[nH]4)cc(N4CCOCC4)nn23)cccc1C(F)(F)F |
| – | 427 | 724 | CCc1c(F)cccc1Cc1c(CNCCO)nc2c(N)cc(N3CCOCC3)nn12 |
